From ChEMBL document CHEMBL1811810, “N-substituted homopiperazine barbiturates as gelatinase inhibitors” (Bioorg Med Chem, 2011)

Tested on: Caco-2
Assay: cells
Conditions: Homo sapiens, Caco-2, read-out: INH
Description: Inhibition of cell invasion of human Caco2 cells at 100 nM by cell invasion assay

CN(C)c1cccc2c(S(=O)(=O)N3CCCN(C4(c5ccc(Oc6ccccc6)cc5)C(=O)NC(=O)NC4=O)CC3)cccc12
inhibition at 0.1 µM: 20.1%
